Measurements published in publication PMC6145935, “Asymmetric assembly of high-value α-functionalized organic acids using a biocatalytic chiral-group-resetting process” (Nature Communications, 2018).

Molecular target: T1, CgTD (Corynebacterium glutamicum, UniProt Q04513)
T1 construct: gene ilvA; recombinant, expressed in E. coli BL21(DE3) from pETDuet-1 (pETduet-CgTD)
T1 sequence (Q04513 1-436): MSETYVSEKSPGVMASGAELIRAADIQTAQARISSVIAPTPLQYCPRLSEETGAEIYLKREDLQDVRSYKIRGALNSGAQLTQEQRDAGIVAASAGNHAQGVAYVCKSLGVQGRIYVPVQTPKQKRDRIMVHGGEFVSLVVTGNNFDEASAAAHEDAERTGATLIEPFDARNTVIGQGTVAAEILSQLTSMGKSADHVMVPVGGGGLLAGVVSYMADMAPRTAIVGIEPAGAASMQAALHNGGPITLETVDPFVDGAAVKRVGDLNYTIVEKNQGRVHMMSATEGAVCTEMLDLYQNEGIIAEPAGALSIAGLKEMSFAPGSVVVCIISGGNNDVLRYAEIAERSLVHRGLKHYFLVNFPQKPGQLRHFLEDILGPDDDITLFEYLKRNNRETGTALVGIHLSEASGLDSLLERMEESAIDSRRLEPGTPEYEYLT
Experiment: TD activity screen of enzyme expressed in E. coli
Conditions: PLP enzyme; deamination to alpha-keto acid 4a

Row | Compound | TD activity screen of enzyme expressed in E. coli
1 | N[C@H](C(=O)O)C(O)c1ccccc1 (stereo partly drawn) [threo-3a, threo-ʟ-phenylserine] | the TD activities toward both threo- and erythro-ʟ-phenylserine (threo/erythro-3a) were tested
2 | N[C@H](C(=O)O)[C@@H](O)c1ccccc1 [erythro-3a, erythro-ʟ-phenylserine] | only TD from Corynebacterium glutamicum (CgTD) showed activities toward both configurations
